What all share (format): physicochemical
The nature of data set [1]: Interconversion/slurry experiments of mixed crystalline forms in 2-propanol (XRPD). Here is the method:
About 25 mg of a specific crystalline form of compound (1) and 25 mg of the same or another crystalline form of compound (1) were charged into a vial and 1.0 mL of 2-Propanol was added. The vials were closed and the mixtures were stirred (via shaking using an Eppendorf Thermomixer, starting with 750 rpm, increased to 1000 rpm after 1 day) at an elevated temperature (30±2° C.) for 7 days. Subsequently the mixtures were cooled to 20±2° C. and stirred for an additional 2 hours.
The solids were then separated via filtration using a suction filter. To dry the thus obtained solid material an air flow was applied for 2 to 3 hours.
The crystalline form of the obtained materials was determined using XRPD. The experiments are summarized below in table 2 below.
A mixture of two different crystalline forms of compound (1) was charged into a vial and 1.0 mL of 2-Propanol was added (details see table).
The vials were closed and the mixtures were stirred (by means of shaking, Eppendorf Thermomixer, 750 rpm at first, increased to 1000 rpm after 1 d) at elevated temperature (30±2° C.) for 7 days.
Subsequently, the mixtures were cooled to 20±2° C. and stirred for additional 2 hours.
The solids were then isolated via filtration using a suction filter. The air flow from the suction pump was applied for 2 to 3 hours to dry the isolated solid.

Data set [2] can be described thus: Chemical stability of crystalline forms, open-vial storage (content by HPLC, crystalline form by XRPD). On the procedure: Samples of compound 1 in different crystalline forms were stored in open vials under controlled conditions at different temperatures and rel. humidities for 28 days. Prior to storage and after 14 and 28 days the content of compound (1) in the sample was determined via HPLC and the crystalline form was measured via XRPD.

Data set [3] can be described thus: Chemical stability in pharmaceutical compositions (excipient mixtures with 10% compound (1)). Conditions: listed as A. Here is the method: To test the chemical stability, i.e. compatibility of different crystalline forms of compound (1), solid multi component mixtures were prepared comprising well established excipients used for solid oral dosage form and having different functions therein. The single components of each mixture were exactly weighed and intensively triturated using a mortar and a pestle.
10 g of the final mixtures were separately filled into glass vials (open or closed) and stored under the conditions outlined below in table 13. Samples were taken and analyzed initially and after 1, 2 and 3 months with respect to the content of compound (1) within the mixtures.

Data set [4] in a line: Dynamic vapor sorption (DVS), hygroscopicity. Here is the method: Crystalline forms were characterized by dynamic vapor sorption (DVS) using a Porotec DVS 1000 or a SMS DVS Intrinsic water vapor sorption analyzer. For the DVS analysis, a step width of 10% r.h. was applied allowing the samples to equilibrate and reach weight constancy (±0.002%) for at least 10 min on each step. All measurements were performed according to the following program: 50% r.h.→90% r.h., 90→0% r.h., 0%→90% r.h., 90%→50% r.h. A cycle with increasing humidity is also known as a sorption cycle, a cycle with decreasing humidity is also known as a desorption cycle. The details of the respective DVS measurements are shown below in table 51 and discussed further below.
The hygroscopicity of the respective crystalline forms determined via the DVS measurements was classified according to the ranges for mass increase defined in the European Pharmacopoeia: very hygroscopic (vh): increase of the mass ≧15%; hygroscopic (h): increase of the mass is less than 15% and equal or greater than 2%; slightly hygroscopic (sh): increase of the mass is less than 2% and equal or greater than 0.2%; not hygroscopic (nh): increase of the mass is less than 0.2%; deliquescent (d): sufficient water is absorbed to form a liquid.

Data set [5] can be described thus: Slurry of a single crystalline form in solvent, resulting form by XRPD. Here is the method: A quantity of compound (1) is charged into a vial or flask and an amount of solvent is added. The resulting suspension/solution is stirred (e.g. orbital shaker or overhead-stirrer) for a given time at a specific temperature. Subsequently, if the suspension/solution was stirred at an elevated temperature, it is allowed to cool to room temperature or any other predetermined temperature to precipitate or crystallize the product and the solvent is removed by filtration.
The vial was closed and the mixture (a white suspension) was stirred (by means of shaking, 400 rpm, PLS Synthesiser) at room temperature (22±2° C.) for 13 days.
The solid was separated using a suction filter and dried by applying an air flow for additional 5 to 30 minutes (until the solid appeared to be dry).
The vial was closed and the suspension was stirred (by means of shaking, PLS shaker, 400 rpm) at an elevated temperature (40° C.±2) for 20 h.
The mixture was cooled to 20±2° C. The solid was separated using a suction filter (G4) and dried by applying an air flow until the sample appeared to be dry. The white solid was subsequently left for 1 h at ambient conditions.

On to `CN(C)[C@]1(c2cccc(F)c2)CC[C@]2(CC1)c1[nH]c3ccccc3c1CCN2C(=O)/C=C/c1ccccc1` [A17.9], for which the resulting crystalline form in data set [1] (1.0 mL 2-Propanol, 30±2° C. 7 days, then 20±2° C. 2 hours, XRPD) was “A + H”.

Take `CN(C)[C@]1(c2cccc(F)c2)CC[C@]2(CC1)c1[nH]c3ccccc3c1CCN2C(=O)/C=C/c1ccccc1` [crystalline form A, cis-(E)-4-(3-Fluorophenyl)-2′,3′,4′,9′-tetrahydro-N,N-dimethyl-2′-(1-oxo-3-phenyl-2-propenyl)-spiro[cyclohexane-1,1′[1H]-pyrido[3,4-b]indol]-4-amine]: the “Content cmpd (1)” value in data set [2] (40° C., 75% r.H., storage 0 d, listed as A) was determined as 99.58%; in data set [2] (40° C., 75% r.H., storage 14 d, listed as A) it was 99.63%; in data set [2] (40° C., 75% r.H., storage 28 d, listed as A), 99.39%; in data set [2] (50° C., storage 0 d, listed as A), 99.58%; in data set [2] (50° C., storage 14 d, listed as A), 99.49%; in data set [2] (50° C., storage 28 d, listed as A) it was 99.37%. For the same compound, the “content of compound (1) within the mixture” value (shortened to “content of compound”) in data set [3] (Lactose monohydrate, PVP25, Crospovidone, Talcum, 40° C., 75% rel. hum., 0 month) turned out to be 99.66; in data set [3] (Lactose monohydrate, PVP25, Crospovidone, Talcum, 40° C., 75% rel. hum., 1 month) it was 99.93; in data set [3] (Lactose monohydrate, PVP25, Crospovidone, Talcum, 40° C., 75% rel. hum., 2 months), 99.72; in data set [3] (Lactose monohydrate, PVP25, Crospovidone, Talcum, 40° C., 75% rel. hum., 3 months), 99.86; in data set [3] (Lactose monohydrate, PVP25, Crospovidone, Talcum, 50° C. dry, 0 month), 99.66; in data set [3] (Lactose monohydrate, PVP25, Crospovidone, Talcum, 50° C. dry, 1 month), 99.58. For the same compound, the “content of compound” value in data set [3] (Lactose monohydrate, PVP25, Crospovidone, Talcum, 50° C. dry, 2 months) is given as 99.54; in data set [3] (Lactose monohydrate, PVP25, Crospovidone, Talcum, 50° C. dry, 3 months), 99.56; in data set [3] (Microcrystalline cellulose, HPMC 6 mPas, L-HPC LH21, magnesium stearate, 40° C., 75% rel. hum., 0 month), 90.64; in data set [3] (Microcrystalline cellulose, HPMC 6 mPas, L-HPC LH21, magnesium stearate, 40° C., 75% rel. hum., 1 month) it was 99.61; in data set [3] (Microcrystalline cellulose, HPMC 6 mPas, L-HPC LH21, magnesium stearate, 40° C., 75% rel. hum., 2 months), 99.60; in data set [3] (Microcrystalline cellulose, HPMC 6 mPas, L-HPC LH21, magnesium stearate, 40° C., 75% rel. hum., 3 months), 99.66. Also, the “content of compound” value in data set [3] (Microcrystalline cellulose, HPMC 6 mPas, L-HPC LH21, magnesium stearate, 50° C. dry, 0 month) was 99.64; in data set [3] (Microcrystalline cellulose, HPMC 6 mPas, L-HPC LH21, magnesium stearate, 50° C. dry, 1 month), 99.59; in data set [3] (Microcrystalline cellulose, HPMC 6 mPas, L-HPC LH21, magnesium stearate, 50° C. dry, 2 months), 99.59; in data set [3] (Microcrystalline cellulose, HPMC 6 mPas, L-HPC LH21, magnesium stearate, 50° C. dry, 3 months), 99.62. The “change in mass with increasing/decreasing relative humidity” value in data set [4] is −0.2 to 0.1%. Besides, in data set [4], the hysteresis is listed as ≤ 0.5%. In addition, in data set [4] (classes of European Pharmacopoeia), the hygroscopicity entry is recorded as “not hygroscopic or just slightly hygroscopic”. Besides, the “thermodynamic stability relative to the other crystalline forms” value in data set [1] (conclusion from the interconversion experiments in 2-Propanol) is “thermodynamically more stable than the other crystalline forms”. In addition, the resulting crystalline form is reported as “crystalline form A” in data set [5] (suspension in ethanol, 40° C.±2, 20 h) and “crystalline form A” in data set [5] (suspension in ethylacetate/water 70:30, room temperature (22±2° C.), 13 days).

Turning to `CN(C)[C@]1(c2cccc(F)c2)CC[C@]2(CC1)c1[nH]c3ccccc3c1CCN2C(=O)/C=C/c1ccccc1` [crystalline form D, cis-(E)-4-(3-Fluorophenyl)-2′,3′,4′,9′-tetrahydro-N,N-dimethyl-2′-(1-oxo-3-phenyl-2-propenyl)-spiro[cyclohexane-1,1′[1H]-pyrido[3,4-b]indol]-4-amine], the “Content cmpd (1)” value is recorded as 84.61% in data set [2] (40° C., 75% r.H., storage 0 d, listed as D); 84.27% in data set [2] (40° C., 75% r.H., storage 14 d, listed as D); 83.92% in data set [2] (40° C., 75% r.H., storage 28 d, listed as D); 84.61% in data set [2] (50° C., storage 0 d, listed as D); 84.65% in data set [2] (50° C., storage 14 d, listed as D); 83.54% in data set [2] (50° C., storage 28 d, listed as D). For the same compound, the “hysteresis (in words)” value in data set [4] (sorption and desorption behavior) is listed as “no significant hysteresis”. Further, in data set [5] (suspensions of Table 6: acetonitrile, acetone/water or water, RT or 50° C., 3 to 5 d), the “transformation into another polymorphic form” value is recorded as “did not transform into another polymorphic form”.

In the case of `CN(C)[C@]1(c2cccc(F)c2)CC[C@]2(CC1)c1[nH]c3ccccc3c1CCN2C(=O)/C=C/c1ccccc1` [crystalline form E, cis-(E)-4-(3-Fluorophenyl)-2′,3′,4′,9′-tetrahydro-N,N-dimethyl-2′-(1-oxo-3-phenyl-2-propenyl)-spiro[cyclohexane-1,1′[1H]-pyrido[3,4-b]indol]-4-amine], the “Content cmpd (1)” value in data set [2] (40° C., 75% r.H., storage 0 d, listed as E) was determined as 99.76%; in data set [2] (40° C., 75% r.H., storage 14 d, listed as E), 99.80%; in data set [2] (40° C., 75% r.H., storage 28 d, listed as E) it was 99.50%; in data set [2] (50° C., storage 0 d, listed as E), 99.76%; in data set [2] (50° C., storage 14 d, listed as E) it was 97.25%; in data set [2] (50° C., storage 28 d, listed as E), 95.53%. Also, the “hysteresis (in words)” value in data set [4] (between 10% and 40% relative humidity) is given as “significant hysteresis”.
